The source of these data is patent US20140051679A1, “KINASE INHIBITORS AND METHOD OF TREATING CANCER WITH SAME” (UNIVERISTY HEALTH NETWORKS, priority 2011, published 2014).

As a reminder, the GI50 is the concentration that inhibits growth by half. What is called IC50 is the concentration needed to halve the response being measured.

For assay [1], the system named is PA-1 ovarian cancer cells. The experiment in a line: Cell growth inhibition, Sulforhodamine B assay, PA-1. It is filed as cell-based. Conditions: 120 h, 5 days culture, SRB assay, read-out: Cell Line GI50 Range PA-1. In general terms: The SRB assay estimates cell density from bound dye.
The subject of assay [2] is HT29 colon cancer cells. Briefly: Cell growth inhibition, Sulforhodamine B assay, HT29. It is filed as cell-based. Conditions: Homo sapiens, HT-29, 120 h, 5 days culture, SRB assay, read-out: Cell Line GI50 Range HT29.
In assay [3] the target is T1, human TTK (Homo sapiens, UniProt P33981).
T1 construct: amino terminal GST fusion of full length human TTK; purchased Invitrogen
T1 sequence (P33981 1-857): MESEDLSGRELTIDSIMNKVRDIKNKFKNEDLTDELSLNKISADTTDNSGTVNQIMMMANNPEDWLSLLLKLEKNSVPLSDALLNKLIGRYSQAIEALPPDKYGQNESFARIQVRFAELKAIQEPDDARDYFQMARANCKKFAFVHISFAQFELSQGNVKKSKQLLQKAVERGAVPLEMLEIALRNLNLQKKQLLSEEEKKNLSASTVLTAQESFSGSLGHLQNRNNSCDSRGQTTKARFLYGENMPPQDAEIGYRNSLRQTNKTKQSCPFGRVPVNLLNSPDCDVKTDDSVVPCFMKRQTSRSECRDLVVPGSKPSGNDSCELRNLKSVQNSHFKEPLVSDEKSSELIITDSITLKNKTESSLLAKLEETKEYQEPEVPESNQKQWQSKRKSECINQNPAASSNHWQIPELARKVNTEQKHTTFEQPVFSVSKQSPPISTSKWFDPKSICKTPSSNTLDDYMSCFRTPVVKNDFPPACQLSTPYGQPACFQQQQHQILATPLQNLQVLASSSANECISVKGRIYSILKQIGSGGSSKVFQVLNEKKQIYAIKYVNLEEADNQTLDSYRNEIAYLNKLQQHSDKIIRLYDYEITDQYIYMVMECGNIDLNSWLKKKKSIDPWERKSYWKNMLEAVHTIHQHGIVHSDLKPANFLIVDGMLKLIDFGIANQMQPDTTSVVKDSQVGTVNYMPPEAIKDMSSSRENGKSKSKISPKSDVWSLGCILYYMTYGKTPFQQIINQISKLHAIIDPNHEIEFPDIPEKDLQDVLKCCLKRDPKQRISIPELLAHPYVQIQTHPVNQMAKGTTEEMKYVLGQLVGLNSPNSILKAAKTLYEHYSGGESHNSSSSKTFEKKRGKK
Briefly: TTK inhibition assay (indirect ELISA). Type of assay: biochemical. The note with it: GST-TTK 0.68 nM, 16 μM ATP; read-out: IC50 Ranges TTK. (In general: An ELISA detects its analyte on a solid surface through an enzyme-linked reagent.)

Assay [4] relates to MDA-MB-468 breast cancer cells. The experiment in a line: Cell growth inhibition, Sulforhodamine B assay, MDA-MB-468. Type of assay: cell-based. The note with it: Homo sapiens, 120 h, 5 days culture, SRB assay, read-out: Cell Line GI50 Range MDA-MB-468.
In assay [5] the target is T2, Aurora B (Homo sapiens, UniProt Q96GD4).
T2 construct: purchased Invitrogen PV3970
The experiment in a line: Aurora B inhibition assay (Z-Lyte). Type of assay: biochemical. Conditions: 28 nM Aurora B, 128 μM ATP; read-out: IC50 Ranges Aurora B. On the procedure:
Aurora B inhibition was determined using the Z-Lyte assay kit from Invitrogen. The assay was performed using the recommended manufacturer's instructions with 128 μM ATP and 28 nM Aurora B (Invitrogen cat #PV3970). The % inhibition values were determined according to the manufacturer's directions and IC50 values were obtained using a non-linear 4 point logistic curve fit (XLfit4, IDBS)

Assay [6] concerns HCT116 colon cancer cells. The experiment in a line: Cell growth inhibition, Sulforhodamine B assay, HCT116. It is filed as cell-based. The note with it: Homo sapiens, HCT-116, 120 h, 5 days culture, SRB assay, read-out: Cell Line GI50 Range HCT116.
Assay [7] concerns MDA-MB-231 breast cancer cells. The experiment in a line: Cell growth inhibition, Sulforhodamine B assay, MDA-MB-231. It is filed as cell-based. Conditions: Homo sapiens, 120 h, 5 days culture, SRB assay, read-out: Cell Line GI50 Range MDA-MB-231.
Assay [8] concerns the target T3, human PLK4 (Homo sapiens, UniProt O00444).
T3 construct: amino terminal GST fusion of residues 1-391 of human PLK4; made in house; host or cells: E. coli
T3 sequence (O00444 1-391): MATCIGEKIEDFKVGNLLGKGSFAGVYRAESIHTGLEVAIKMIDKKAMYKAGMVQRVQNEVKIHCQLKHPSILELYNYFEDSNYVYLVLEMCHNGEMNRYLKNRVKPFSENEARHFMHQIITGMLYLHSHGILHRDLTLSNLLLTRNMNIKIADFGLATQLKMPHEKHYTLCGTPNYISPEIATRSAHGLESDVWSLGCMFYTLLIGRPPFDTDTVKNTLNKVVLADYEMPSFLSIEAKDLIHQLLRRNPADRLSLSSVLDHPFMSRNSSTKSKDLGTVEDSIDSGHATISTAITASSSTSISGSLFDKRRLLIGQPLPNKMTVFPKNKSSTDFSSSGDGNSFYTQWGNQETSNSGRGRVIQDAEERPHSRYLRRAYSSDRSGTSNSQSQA
The experiment in a line: PLK4 inhibition assay (indirect ELISA). It is filed as biochemical. The note with it: GST-PLK4 4 nM, 15 μM ATP; read-out: IC50 Ranges PLK4. A digest of the protocol: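 Dephosphorylated GST-tagged human PLK4 (residues 1-391, E. coli), 4 nM, preincubated 15 min with compound, then reacted 30 min with 15 μM ATP on MBP-coated plates (50 mM HEPES pH 7.5, 10 mM MgCl2, 0.01% Brij 35). Phospho-MBP detected by antibody ELISA at 450 nm. Tested at 10 μM or 10-point titrations; IC50 from 4-parameter logistic fit.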

In assay [9] the test system is OVCAR-3 ovarian cancer cells. Briefly: Cell growth inhibition, Sulforhodamine B assay, OVCAR-3. Conditions: Homo sapiens, 120 h, 5 days culture, SRB assay, read-out: Cell Line GI50 Range OVCAR-3. It is filed as cell-based.
Method: Breast cancer cells (MDA-MB-231, MDA-MB-468), colon cancer cells (HCT116, HT29) and ovarian cancer cells (PA-1, OVCAR-3) were seeded (1000 to 4000 in 80 μl per well depending on the cell growth rate) into 96 well plates 24 hours before compound overlay. Compounds were prepared as 10 mM stock solutions in 100% DMSO which were diluted with DMEM (Dulbecco's Modified Eagle's Medium) cell growth Medium (Invitrogen, Burlington, ON, Canada) containing 10% FBS (Fetal Bovine Serum) to concentrations ranging from 50 nM to 250 μM. Aliquots (20 μl) from each concentration were overlaid to 80 μl of the pre-seeded cells in the 96 well plates to make final concentrations of 10 nM to 50 μM. The cells were cultured for 5 days before the Sulforhodamine B assay (SRB) was performed to determine the compound's cell growth inhibition activity.
Sulforhodamine B (purchased from Sigma, Oakville, ON, Canada) is a water-soluble dye that binds to the basic amino acids of the cellular proteins. Thus, colorimetric measurement of the bound dye provides an estimate of the total protein mass that is related to the cell number. the cells are fixed in situ by gently aspirating off the culture media and adding 50 μl ice cold 10% Trichloroacetic Acid (TCA) per well and incubate at 4° C. for 30-60 min, The plates are washed with water five times and allowed to air dry for 5 min. Addition of 50 μl 0.4% (w/v) SRB solution in 1% (v/v) acetic acid to each well and incubatation for 30 min at RT completes the staining reaction. Following staining, plates are washed four times with 1% acetic acid to remove unbound dye and then allowed to air dry for 5 min. The stain is solubilized with 100 μl of 10 mM Tris pH 10.5 per well. Absorbance is read at 570 nm.
The percentage (%) of relative growth inhibition was calculated by comparing to DMSO treated only cells (100%). […] The GI50 was calculated using GraphPad PRISM software (GraphPad Software, Inc., San Diego, Calif., USA).

Each structure is given as a SMILES string.

T2 sequence (Q96GD4 whole entry): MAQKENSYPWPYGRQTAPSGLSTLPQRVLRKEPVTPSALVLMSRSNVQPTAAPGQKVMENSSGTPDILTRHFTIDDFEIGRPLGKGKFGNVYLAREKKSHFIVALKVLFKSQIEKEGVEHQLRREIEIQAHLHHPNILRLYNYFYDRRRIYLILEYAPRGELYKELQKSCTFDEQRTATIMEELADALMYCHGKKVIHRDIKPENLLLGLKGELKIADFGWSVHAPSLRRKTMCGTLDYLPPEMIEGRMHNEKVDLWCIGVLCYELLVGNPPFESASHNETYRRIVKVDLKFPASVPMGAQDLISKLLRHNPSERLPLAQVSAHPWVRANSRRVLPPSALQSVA

In the case of `CN1CCC(Oc2ccc(-c3n[nH]c4ccc(C(=O)NC(c5ccccc5)C5CCCC5)cc34)cc2)CC1` (stereo not drawn) [Example A159, N-(cyclopentyl(phenyl)methyl)-3-(4-((1-methylpiperidin-4-yl)oxy)phenyl)-1H-indazole-5-carboxamide], the GI50 in assay [1], in assay [2], in assay [4], in assay [6], in [7] and in assay [9] was no more than 5 µM throughout. The half-inhibitory concentration (IC50) in assay [3], in assay [5] and in [8] was no more than 5 µM throughout.
On to `CCc1cccc(CC)c1NC(=O)Nc1ccc2[nH]nc(-c3ccc(C4CN(C)CCO4)cc3)c2c1` (stereo not drawn) [Example A124, 1-(2,6-diethylphenyl)-3-(3-(4-(4-methylmorpholin-2-yl)phenyl)-1H-indazol-5-yl)urea], for which the concentration for 50% growth inhibition (GI50) in assay [1] was no more than 5 µM; in assay [2], no more than 5 µM; in assay [4], no more than 5 µM; in assay [6], no more than 5 µM; in [7], no more than 5 µM; in assay [9], 20 to 50 µM. Besides, the 50% inhibitory concentration (IC50) in assay [3], in [5] and in assay [8] was no more than 5 µM throughout.
`O=CN1CCC(Oc2ccc(-c3n[nH]c4ccc(C(=O)NC(c5ccccc5)C5CC5)cc34)cc2)CC1` (stereo not drawn) [Example A126, N-(cyclopropyl(phenyl)methyl)-3-(4-((1-formylpiperidin-4-yl)oxy)phenyl)-1H-indazole-5-carboxamide]: the GI50 in assay [1], in assay [2], in [4], in assay [6], in assay [7] and in [9] was no more than 5 µM in each case. The concentration for half-maximal inhibition (IC50) in assay [3], in assay [5] and in [8] was no more than 5 µM throughout.
Regarding `CN1CCC(Oc2ccc(-c3n[nH]c4ccc(C(=O)NCc5ccccc5N5CCOCC5)cc34)cc2)CC1` [Example A108, 3-(4-(1-Methylpiperidin-4-yloxy)phenyl)-N-(2-morpholinobenzyl)-1H-indazole-5-carboxamide], the GI50 in assay [1], in assay [2], in [4], in assay [6], in assay [7] and in [9] was no more than 5 µM each time. Further, the IC50 in assay [3], in assay [5] and in assay [8] was no more than 5 µM throughout.
On to `CCC(NC(=O)c1ccc2[nH]nc(-c3ccc(OC4CCN(CCOC)CC4)cc3)c2c1)c1ccccc1` (stereo not drawn) [Example A153, 3-(4-((1-(2-methoxyethyl)piperidin-4-yl)oxy)phenyl)-N-(1-phenylpropyl)-1H-indazole-5-carboxamide], for which the GI50 in [1], in [2], in [4], in assay [6], in assay [7] and in assay [9] was no more than 5 µM each time. The IC50 in [3], in [5] and in assay [8] was no more than 5 µM in each case.
In the case of `CN1CCN(C)c2ccc(-c3n[nH]c4ccc(NC(=O)C(c5ccsc5)N5CCCC5)cc34)cc2C1` (stereo not drawn) [Example A93, N-(3-(1,4-dimethyl-2,3,4,5-tetrahydro-1H-benzo[e][1,4]diazepin-7-yl)-1H-indazol-5-yl)-2-(pyrrolidin-1-yl)-2-(thiophen-3-yl)acetamide], the concentration for 50% growth inhibition (GI50) in assay [1] is no more than 5 µM; in assay [2] it was no more than 5 µM; in assay [4], no more than 5 µM; in assay [6] it was no more than 5 µM; in [7] it was no more than 5 µM; in assay [9], 5 to 20 µM. In addition, the half-maximal inhibitory concentration (IC50) in [3], in assay [5] and in assay [8] was no more than 5 µM throughout.
Consider `CC(C)(O)C1CCN(c2ccc(-c3n[nH]c4ccc(C(=O)NC(c5ccccc5)C5CC5)cc34)cc2)CC1` (stereo not drawn) [Example A112, N-(cyclopropyl(phenyl)methyl)-3-(4-(4-(2-hydroxypropan-2-yl)piperidin-1-yl)phenyl)-1H-indazole-5-carboxamide], for which the GI50 in assay [1], in assay [2], in assay [4], in assay [6], in [7] and in assay [9] was no more than 5 µM throughout. The IC50 in assay [3], in assay [5] and in assay [8] was no more than 5 µM each time.
For the compound `CN1CCC(Oc2ccc(-c3n[nH]c4ccc(NC(=O)C5CCCc6ccccc65)cc34)cc2)CC1` (stereo not drawn) [Example A18, N-(3-(4-((1-methylpiperidin-4-yl)oxy)phenyl)-1H-indazol-5-yl)-1,2,3,4-tetrahydronaphthalene-1-carboxamide], the GI50 in [1], in [2], in [4], in [6], in [7] and in assay [9] was no more than 5 µM in each case. For the same compound, the IC50 in [3], in assay [5] and in assay [8] was no more than 5 µM throughout.
Consider `CN1CCC(Oc2ccc(-c3n[nH]c4ccc(NC(=O)C(c5ccccc5)C5CCCC5)cc34)cc2)CC1` (stereo not drawn) [Example A148, 2-cyclopentyl-N-(3-(4-((1-methylpiperidin-4-yl)oxy)phenyl)-1H-indazol-5-yl)-2-phenylacetamide], for which the GI50 in assay [1], in assay [2], in assay [4], in assay [6], in [7] and in assay [9] was no more than 5 µM in each case. Also, the 50% inhibitory concentration (IC50) in assay [3], in [5] and in assay [8] was no more than 5 µM in each case.
With `CN1CCC(Oc2cccc(-c3n[nH]c4ccc(NC(=O)C(c5ccsc5)N5CCCC5)cc34)c2)CC1` (stereo not drawn) [Example A99, N-(3-(3-((1-methylpiperidin-4-yl)oxy)phenyl)-1H-indazol-5-yl)-2-(pyrrolidin-1-yl)-2-(thiophen-3-yl)acetamide], the GI50 in assay [1], in assay [2], in assay [4], in [6], in assay [7] and in assay [9] was no more than 5 µM throughout. The concentration for half-maximal inhibition (IC50) in [3], in [5] and in assay [8] was no more than 5 µM throughout.
